pIC50: −log10 of the molar value.
tested on: not listed separately; assay: Acute toxicity in mice (LD50); settings: mouse, in vivo, ip; intraperitoneal administration, ICR mice, Van der Waerden method; read-out: LD₅₀
Experimental: An animal test was conducted by using ICR mice as the test animals to examine the acute toxicity of the inventive inhibitive agent against the activity of α-amylase. The values of LD₅₀ calculated according to the Van der Waerdrn method within the confidence limit were: 2412 mg/kg in the oral administration of the same crude mixture of catechin compounds as used in Example 2; 55.2 mg/kg in the intraperitoneal administration of a crude mixture of theaflavin compounds of the composition shown in Table 5 below; and 150 mg/kg in the intraperitoneal administration of epigallocatechin gallate.

Compound	LD50 [mg/kg]
O=C(O[C@@H]1Cc2c(O)cc(O)cc2O[C@@H]1c1cc(O)c(O)c(O)c1)c1cc(O)c(O)c(O)c1 [Epigallocatechin gallate, (-)epigallocatechin gallate]	150

molecular target: T1, α-amylase prepared from human saliva (Homo sapiens, UniProt P0DUB6); assay: Inhibition of the activity of α-amylase (reducing sugar from soluble starch, Bernfeld method); format: biochemical; settings: not given
T1 construct: α-amylase prepared from human saliva; purchased Sigma Co; host or cells: human saliva
T1 sequence (P0DUB6 16-511): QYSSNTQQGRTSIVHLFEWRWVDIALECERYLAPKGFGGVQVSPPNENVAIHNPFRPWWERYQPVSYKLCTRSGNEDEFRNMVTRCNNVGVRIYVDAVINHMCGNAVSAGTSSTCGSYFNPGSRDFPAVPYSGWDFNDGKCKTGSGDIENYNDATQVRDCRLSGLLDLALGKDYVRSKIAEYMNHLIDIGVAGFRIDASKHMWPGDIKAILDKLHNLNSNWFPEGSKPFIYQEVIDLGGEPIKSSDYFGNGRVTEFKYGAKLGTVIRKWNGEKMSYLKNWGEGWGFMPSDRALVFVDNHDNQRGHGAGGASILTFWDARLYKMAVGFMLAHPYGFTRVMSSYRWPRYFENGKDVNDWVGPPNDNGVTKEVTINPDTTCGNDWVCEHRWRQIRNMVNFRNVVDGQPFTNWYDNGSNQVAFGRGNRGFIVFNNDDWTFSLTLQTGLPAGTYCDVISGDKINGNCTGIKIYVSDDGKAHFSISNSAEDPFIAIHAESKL

Compound	pIC50
O=C(O)c1cc(O)c(O)c(O)c1 [Gallic acid, reference compound]	< 3.00

same assay, conditions: human saliva α-amylase, 10 min preincubation at 37°C, soluble starch 2.0 mg/ml; read-out: Concentration for 50% inhibition

pIC50	Compound
< 3.00	Oc1cc(O)c2c(c1)O[C@H](c1cc(O)c(O)c(O)c1)[C@H](O)C2 [Epicagallcatechin, (-)epigallocatechin]
3.89	O=C(O[C@@H]1Cc2c(O)cc(O)cc2O[C@@H]1c1ccc(O)c(O)c1)c1cc(O)c(O)c(O)c1 [Epicatechin gallate, (-)epicatechin gallate]
< 3.00	Oc1cc(O)c2c(c1)O[C@H](c1ccc(O)c(O)c1)[C@H](O)C2 [Epicatechin, (-)epicatechin]
4.74	O=c1c(O)cc([C@H]2Oc3cc(O)cc(O)c3C[C@H]2O)cc2c([C@H]3Oc4cc(O)cc(O)c4C[C@H]3O)cc(O)c(O)c12 [Free theaflavin, free theaflavin]
6.00	O=C(O[C@@H]1Cc2c(O)cc(O)cc2O[C@@H]1c1cc(O)c(=O)c2c(O)c(O)cc([C@H]3Oc4cc(O)cc(O)c4C[C@H]3O)c2c1)c1cc(O)c(O)c(O)c1 [Theaflavin monogallate A, theaflavin monogallate A]

The remaining lines, values behind:

Compound	pIC50
O=C(O[C@@H]1Cc2c(O)cc(O)cc2O[C@@H]1c1cc(O)c(O)c(O)c1)c1cc(O)c(O)c(O)c1 [Epigallocatechin gallate, (-)epigallocatechin gallate]	3.59
O=C(O[C@@H]1Cc2c(O)cc(O)cc2O[C@@H]1c1cc(O)c(O)c2c(=O)c(O)cc([C@H]3Oc4cc(O)cc(O)c4C[C@H]3O)cc12)c1cc(O)c(O)c(O)c1 [Theaflavin monogallate B, theaflavin monogallate B]	5.77

Source: patent publication EP0423419B1, “Inhibitive agent against activity of alpha-amylase” (MITSUI NORIN CO., LTD., priority 1989, dated 1991)
